Data reported in ChEMBL document CHEMBL1201862, “PubChem BioAssay data set” (2004).
Active and inactive are the calls of the source.

What was measured:
[1] = target: T1, E3 ubiquitin-protein ligase XIAP (Homo sapiens, UniProt P98170); experiment: small molecules displacing peptide from XIAP – biochemical, IAP family, fluorescence polarization (AID 1018); format: functional
[2] = target: T1, E3 ubiquitin-protein ligase XIAP; experiment: Counter Screen using XIAP-Bir3 for Chemical Antagonists of Bir1/2 domains of IAP-family anti-apoptotic proteins. [Related pubchem assays (depositor defined):AID1018, AID1449, AID1514, AID1638, AID1749, AID1750, AID488957, AID488963]
Leucine aminopeptidase = target: T2, Leucine aminopeptidase (Plasmodium falciparum 3D7, UniProt Q8IL11); experiment: P. falciparum M17LAP inhibitors, primary screen, biochemical, fluorogenic H-Leu-NHMec substrate, 1536-well (AID 1619); format: functional
T2 sequence (Q8IL11 whole entry): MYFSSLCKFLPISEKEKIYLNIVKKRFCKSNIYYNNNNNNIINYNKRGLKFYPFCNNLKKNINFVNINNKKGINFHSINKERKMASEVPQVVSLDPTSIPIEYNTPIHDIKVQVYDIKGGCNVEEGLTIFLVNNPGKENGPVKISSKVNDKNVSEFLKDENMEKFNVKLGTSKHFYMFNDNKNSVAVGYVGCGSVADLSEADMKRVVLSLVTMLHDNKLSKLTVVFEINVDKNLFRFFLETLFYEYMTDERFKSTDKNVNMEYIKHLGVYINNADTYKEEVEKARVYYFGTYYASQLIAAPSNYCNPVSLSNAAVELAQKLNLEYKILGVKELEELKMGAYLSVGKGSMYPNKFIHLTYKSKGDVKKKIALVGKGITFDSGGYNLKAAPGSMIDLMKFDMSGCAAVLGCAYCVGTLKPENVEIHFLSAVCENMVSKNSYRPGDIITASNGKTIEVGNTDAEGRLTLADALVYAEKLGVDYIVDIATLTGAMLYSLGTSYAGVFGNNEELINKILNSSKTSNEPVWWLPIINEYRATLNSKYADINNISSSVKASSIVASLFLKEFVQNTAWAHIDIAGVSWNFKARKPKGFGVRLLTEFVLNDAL

[3] = target: Voltage-dependent T-type calcium channel subunit alpha-1H (Homo sapiens, UniProt O95180); format: functional;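 note: channel activity triggered by adding a high calcium stimulation buffer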
[4] = off-target signal loss in HeLa-CEM21 co-culture – HeLa F-luc CTL cells, cherry-picked, counter-screen for HIV-1 Env fusion inhibitor project, dose response (AID 652040); format: functional, cell-based;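 note: potency for signal decrease marking cytotoxic or nonspecific inhibition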
[5] = blockers of HIV-1 envelope-mediated cell-cell fusion – cherry-pick, dose response (AID 652057); format: functional, cell-based
[6] = blockers of HIV-1 ZM109 envelope-driven cell-cell fusion – HeLa effector, CEM target cells, luciferase, cherry-pick, dose response (AID 652058); format: functional, cell-based;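 note: luciferase signal from HIV-1 Env mediated cell-cell fusion of effector and target cells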
[7] = HIV-1 AD8 envelope cell-cell fusion blockers – cherry-pick, dose response (AID 652062); format: functional, cell-based;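 note: luciferase signal from cell-cell fusion driven by HIV-1 clade B AD8 Env; potency is for inhibitors of fusion seen as a drop in luminescence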
[8] = HEK-293T viability loss after treatment – luminescence, T-cell screen hits, cytotoxicity control for TCR NF-kB inhibitor project, dose response (AID 489026); format: functional, cell-based;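 note: cells exposed to compound about 14 hours before the viability readout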
[9] = DRD fibroblast viability loss – cell-based, non-viral oncogenic, luminescence, dose response (AID 1934); format: functional; details: Homo sapiens
BJ [10] = experiment: cells; format: functional, cell-based; details: Homo sapiens
BJ [11] = experiment: BJ-TERT-LT-ST fibroblast viability loss – cell-based, RAS-independent, luminescence, dose response (AID 1935); format: functional; details: Homo sapiens;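 note: BJ fibroblasts immortalized with TERT plus LT and ST oncogenes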
[12] = target: E3 ubiquitin-protein ligase Mdm2 (Homo sapiens, UniProt Q00987); experiment: MDM2-luc reporter signal enhancers, multi-concentration potency testing, MDM2 ubiquitin-protein ligase inhibitor program, whole-cell format, luminescence detection, 384-well microplate (AID 1394); format: functional;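 note: MDM2 E3 inhibitors raise luminescence so EC50 is for signal enhancement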
BJ [13] = experiment: BJ-TERT fibroblast viability loss – cell-based, RAS-independent, luminescence, dose response (AID 1933); format: functional; details: Homo sapiens
[14] = target: Induced myeloid leukemia cell differentiation protein Mcl-1 (Homo sapiens, UniProt Q07820); format: functional
[15] = growth inhibition of PfATP4-mutant resistant parasites – NITD609-resistant line, SYBR Green, dry powder, dose response (AID 1159571); format: functional, cell-based;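 note: parasites synchronized at ring stage by sorbitol before testing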
[16] = P. falciparum Dd2 growth inhibitors, dose response, SYBR Green, cherry-picked samples (AID 1159567); format: functional, cell-based
[17] = Dd2 malaria parasite growth inhibition potency – SYBR Green, dry powder samples, dose response (AID 1159566); format: functional, cell-based;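 note: potency for growth inhibition with lower SYBR green DNA signal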
[18] = growth inhibition of yeast DHODH-expressing 3D7 parasites – SYBR Green, dry powder samples, dose response (AID 1159570); format: functional, cell-based;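 note: parasite growth measured after 72 hours of compound exposure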
[19] = toxicity to human HepG2 hepatoma cells – cell-based, plate reader, dry powder samples, cytotoxicity control, dose response (AID 1159569); format: functional;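 note: inhibitor potency with signal falling toward the positive control level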
[20] = fluconazole-exposed Candida albicans growth modulators – fluorescence, retest, confirmation (AID 2467); format: functional, cell-based
[21] = NIH-3T3 fibroblast cytotoxicity, dose response, cytotoxicity control, cell-based, fluorescence, Alamar Blue, secondary assay (AID 2327); format: functional;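 note: NIH-3T3 mouse fibroblasts cultured with fluconazole at 8 µg/mL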
[22] = A Cell Based Secondary Assay To Explore Cytotoxicity of Compounds that Sensitize Mycobacterium Tuberculosis to Beta-Lactam Antibiotics.; format: functional
[23] = target: T3, Carboxy-terminal domain RNA polymerase II polypeptide A small phosphatase 1 (Homo sapiens, UniProt Q9GZU7); experiment: CTDSP1 inhibitors, concentration-response, biochemical, absorbance readout, ultra-high-throughput screen actives (AID 540297); format: functional
T3 sequence (Q9GZU7 whole entry): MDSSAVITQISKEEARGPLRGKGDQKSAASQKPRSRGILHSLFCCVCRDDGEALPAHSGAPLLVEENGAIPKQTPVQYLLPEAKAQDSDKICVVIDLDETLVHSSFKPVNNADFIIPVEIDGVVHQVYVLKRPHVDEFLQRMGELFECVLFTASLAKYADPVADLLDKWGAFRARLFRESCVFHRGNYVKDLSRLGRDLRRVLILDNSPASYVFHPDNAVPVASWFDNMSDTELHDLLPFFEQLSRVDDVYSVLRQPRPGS

Nonstructural protein 1 = Nonstructural protein 1 (Influenza A virus, UniProt Q194T2); format: functional, Influenza A virus (A/California/07/2009(H1N1))
Large T antigen = Large T antigen (Simian virus 40, UniProt P03070); format: functional, Betapolyomavirus macacae;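 note: Confirmatory-stage PubChem screen for compounds that inhibit SV40 T antigen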
[24] = target: T4, Alkaline phosphatase, tissue-nonspecific isozyme (Homo sapiens, UniProt P05186); experiment: potency against alkaline phosphatase TNAP – biochemical, luminescent, dose response, SAR follow-up (AID 1056)
T4 sequence (P05186 whole entry): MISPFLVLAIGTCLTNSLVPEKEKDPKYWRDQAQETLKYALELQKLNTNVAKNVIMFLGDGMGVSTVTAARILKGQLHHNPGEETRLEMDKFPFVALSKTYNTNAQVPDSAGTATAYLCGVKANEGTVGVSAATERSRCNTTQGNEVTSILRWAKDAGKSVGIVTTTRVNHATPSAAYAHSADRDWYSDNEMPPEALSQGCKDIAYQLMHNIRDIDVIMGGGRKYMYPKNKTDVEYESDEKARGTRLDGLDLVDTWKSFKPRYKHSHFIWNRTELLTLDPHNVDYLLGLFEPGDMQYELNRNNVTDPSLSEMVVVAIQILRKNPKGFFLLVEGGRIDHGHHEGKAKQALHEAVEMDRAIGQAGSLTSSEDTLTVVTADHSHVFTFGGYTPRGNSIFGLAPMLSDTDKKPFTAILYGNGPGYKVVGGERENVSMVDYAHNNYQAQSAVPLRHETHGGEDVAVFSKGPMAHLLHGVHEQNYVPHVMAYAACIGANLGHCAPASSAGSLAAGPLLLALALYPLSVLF

T1 sequence (P98170 whole entry): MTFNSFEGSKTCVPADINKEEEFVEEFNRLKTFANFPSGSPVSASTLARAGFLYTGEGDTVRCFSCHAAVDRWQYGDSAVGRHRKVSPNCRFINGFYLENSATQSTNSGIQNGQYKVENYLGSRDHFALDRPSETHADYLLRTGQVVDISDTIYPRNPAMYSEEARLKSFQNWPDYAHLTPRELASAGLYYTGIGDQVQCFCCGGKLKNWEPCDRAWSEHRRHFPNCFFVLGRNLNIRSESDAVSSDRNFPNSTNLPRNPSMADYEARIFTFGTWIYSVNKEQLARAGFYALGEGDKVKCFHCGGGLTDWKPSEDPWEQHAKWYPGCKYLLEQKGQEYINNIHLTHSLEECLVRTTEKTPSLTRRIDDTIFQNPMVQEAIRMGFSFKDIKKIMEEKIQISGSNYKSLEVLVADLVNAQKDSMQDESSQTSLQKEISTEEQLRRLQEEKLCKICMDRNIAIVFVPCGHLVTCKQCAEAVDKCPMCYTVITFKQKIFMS
Induced myeloid leukemia cell differentiation protein Mcl-1, sequence (Q07820 whole entry): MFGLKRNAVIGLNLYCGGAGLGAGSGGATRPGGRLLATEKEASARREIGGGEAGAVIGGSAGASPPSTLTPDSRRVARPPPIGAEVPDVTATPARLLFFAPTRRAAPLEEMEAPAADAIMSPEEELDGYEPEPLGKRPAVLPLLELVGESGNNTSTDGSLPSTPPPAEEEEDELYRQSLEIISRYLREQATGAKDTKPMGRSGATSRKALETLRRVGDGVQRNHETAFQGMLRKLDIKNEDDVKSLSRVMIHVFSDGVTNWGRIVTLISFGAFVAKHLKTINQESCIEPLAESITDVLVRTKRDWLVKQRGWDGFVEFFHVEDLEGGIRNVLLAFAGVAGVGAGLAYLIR
Voltage-dependent T-type calcium channel subunit alpha-1H, sequence (O95180 whole entry, the tested form may be a part): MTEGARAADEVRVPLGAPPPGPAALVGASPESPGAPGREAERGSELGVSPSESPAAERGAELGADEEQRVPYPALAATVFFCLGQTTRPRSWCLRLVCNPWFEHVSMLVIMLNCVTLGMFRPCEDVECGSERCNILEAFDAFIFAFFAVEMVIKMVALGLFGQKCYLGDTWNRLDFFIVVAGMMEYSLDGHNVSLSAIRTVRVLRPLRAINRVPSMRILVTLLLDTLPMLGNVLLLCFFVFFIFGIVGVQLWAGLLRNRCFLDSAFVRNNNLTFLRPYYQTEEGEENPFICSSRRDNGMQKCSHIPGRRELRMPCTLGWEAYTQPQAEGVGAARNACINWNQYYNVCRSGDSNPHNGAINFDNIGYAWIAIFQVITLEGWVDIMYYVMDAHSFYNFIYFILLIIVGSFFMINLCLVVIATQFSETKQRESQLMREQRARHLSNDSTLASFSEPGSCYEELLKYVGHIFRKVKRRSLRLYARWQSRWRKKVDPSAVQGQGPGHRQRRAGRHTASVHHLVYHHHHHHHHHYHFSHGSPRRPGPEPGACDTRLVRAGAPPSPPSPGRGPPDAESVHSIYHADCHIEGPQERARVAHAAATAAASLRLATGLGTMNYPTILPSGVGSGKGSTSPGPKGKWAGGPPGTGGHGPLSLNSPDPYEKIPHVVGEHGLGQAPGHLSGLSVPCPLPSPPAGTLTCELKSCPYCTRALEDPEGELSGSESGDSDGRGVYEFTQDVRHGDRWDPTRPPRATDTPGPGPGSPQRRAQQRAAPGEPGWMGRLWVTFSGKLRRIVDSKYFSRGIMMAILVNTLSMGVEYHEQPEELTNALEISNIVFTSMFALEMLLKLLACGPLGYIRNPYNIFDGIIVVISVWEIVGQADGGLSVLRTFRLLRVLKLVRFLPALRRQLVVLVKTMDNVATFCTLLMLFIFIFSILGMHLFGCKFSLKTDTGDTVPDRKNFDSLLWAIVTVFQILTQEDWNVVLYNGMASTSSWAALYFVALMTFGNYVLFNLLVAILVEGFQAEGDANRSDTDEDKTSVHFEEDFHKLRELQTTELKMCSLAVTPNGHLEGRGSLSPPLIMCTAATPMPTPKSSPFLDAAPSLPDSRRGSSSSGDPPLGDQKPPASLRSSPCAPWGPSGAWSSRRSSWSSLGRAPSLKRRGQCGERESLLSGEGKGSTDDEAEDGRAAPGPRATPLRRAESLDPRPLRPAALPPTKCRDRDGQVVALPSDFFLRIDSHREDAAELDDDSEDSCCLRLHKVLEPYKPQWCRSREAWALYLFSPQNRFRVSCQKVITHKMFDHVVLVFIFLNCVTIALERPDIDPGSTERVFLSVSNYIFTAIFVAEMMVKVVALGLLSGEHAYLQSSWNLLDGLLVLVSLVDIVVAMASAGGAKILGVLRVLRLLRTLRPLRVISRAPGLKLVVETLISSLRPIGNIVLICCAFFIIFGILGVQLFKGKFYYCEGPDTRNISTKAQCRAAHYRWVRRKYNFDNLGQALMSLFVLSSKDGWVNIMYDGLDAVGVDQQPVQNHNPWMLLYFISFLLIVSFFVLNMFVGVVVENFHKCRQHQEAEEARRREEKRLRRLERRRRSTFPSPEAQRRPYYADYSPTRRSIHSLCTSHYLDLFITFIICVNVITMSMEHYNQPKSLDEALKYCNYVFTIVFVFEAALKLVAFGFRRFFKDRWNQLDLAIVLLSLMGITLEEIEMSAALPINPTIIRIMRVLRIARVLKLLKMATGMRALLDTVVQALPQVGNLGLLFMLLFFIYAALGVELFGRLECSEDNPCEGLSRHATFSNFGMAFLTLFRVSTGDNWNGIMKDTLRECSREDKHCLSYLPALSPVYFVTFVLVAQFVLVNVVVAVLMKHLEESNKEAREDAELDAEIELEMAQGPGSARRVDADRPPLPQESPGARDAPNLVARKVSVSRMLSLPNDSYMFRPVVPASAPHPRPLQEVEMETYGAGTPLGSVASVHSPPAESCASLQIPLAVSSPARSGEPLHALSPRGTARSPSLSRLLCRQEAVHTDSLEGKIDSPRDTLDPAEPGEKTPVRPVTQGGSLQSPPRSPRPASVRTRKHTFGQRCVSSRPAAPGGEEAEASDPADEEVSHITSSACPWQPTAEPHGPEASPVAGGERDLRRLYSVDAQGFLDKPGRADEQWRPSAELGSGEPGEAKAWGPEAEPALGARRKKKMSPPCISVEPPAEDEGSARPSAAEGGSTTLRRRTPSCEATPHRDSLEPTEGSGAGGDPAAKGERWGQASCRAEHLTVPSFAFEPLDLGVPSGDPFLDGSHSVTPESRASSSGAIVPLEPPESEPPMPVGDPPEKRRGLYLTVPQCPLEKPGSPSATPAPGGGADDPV
Nonstructural protein 1, sequence (Q194T2 whole entry): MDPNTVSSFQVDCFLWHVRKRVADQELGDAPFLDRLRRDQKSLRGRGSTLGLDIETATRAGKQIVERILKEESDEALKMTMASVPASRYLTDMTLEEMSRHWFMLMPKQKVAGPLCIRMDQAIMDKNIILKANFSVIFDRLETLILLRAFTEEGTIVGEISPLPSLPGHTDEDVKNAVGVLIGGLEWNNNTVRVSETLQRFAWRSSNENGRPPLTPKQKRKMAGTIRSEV
E3 ubiquitin-protein ligase Mdm2, sequence (Q00987 whole entry): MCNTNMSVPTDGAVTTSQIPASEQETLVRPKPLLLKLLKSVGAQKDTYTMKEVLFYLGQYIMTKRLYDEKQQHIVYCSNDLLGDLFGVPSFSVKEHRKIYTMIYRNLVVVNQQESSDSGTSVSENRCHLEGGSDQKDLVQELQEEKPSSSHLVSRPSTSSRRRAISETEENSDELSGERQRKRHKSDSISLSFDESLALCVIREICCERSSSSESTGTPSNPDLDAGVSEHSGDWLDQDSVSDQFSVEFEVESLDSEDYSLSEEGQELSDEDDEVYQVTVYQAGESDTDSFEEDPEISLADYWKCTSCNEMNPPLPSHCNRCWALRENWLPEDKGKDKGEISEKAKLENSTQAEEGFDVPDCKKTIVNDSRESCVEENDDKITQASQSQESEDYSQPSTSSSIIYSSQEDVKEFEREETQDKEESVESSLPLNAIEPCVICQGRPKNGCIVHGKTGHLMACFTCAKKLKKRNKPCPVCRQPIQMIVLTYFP
Large T antigen, sequence (P03070 whole entry): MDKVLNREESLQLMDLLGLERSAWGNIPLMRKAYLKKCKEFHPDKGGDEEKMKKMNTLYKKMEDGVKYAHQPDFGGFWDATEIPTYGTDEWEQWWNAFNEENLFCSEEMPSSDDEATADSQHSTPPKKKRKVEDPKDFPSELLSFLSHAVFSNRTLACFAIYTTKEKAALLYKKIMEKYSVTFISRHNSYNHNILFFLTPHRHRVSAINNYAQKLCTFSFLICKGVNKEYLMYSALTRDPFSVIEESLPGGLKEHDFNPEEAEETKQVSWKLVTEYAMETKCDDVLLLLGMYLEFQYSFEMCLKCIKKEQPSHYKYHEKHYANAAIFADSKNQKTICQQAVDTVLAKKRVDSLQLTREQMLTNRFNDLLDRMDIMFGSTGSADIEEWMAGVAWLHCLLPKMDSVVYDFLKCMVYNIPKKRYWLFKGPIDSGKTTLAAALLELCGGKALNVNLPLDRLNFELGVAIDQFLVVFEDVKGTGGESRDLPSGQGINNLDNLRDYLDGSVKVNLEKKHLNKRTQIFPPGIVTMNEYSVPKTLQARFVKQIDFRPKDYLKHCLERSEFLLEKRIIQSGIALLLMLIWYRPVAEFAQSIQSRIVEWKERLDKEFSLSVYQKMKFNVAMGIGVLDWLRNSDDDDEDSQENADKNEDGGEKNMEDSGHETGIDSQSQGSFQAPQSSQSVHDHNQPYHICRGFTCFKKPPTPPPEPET

## CCC12CN3CCN(CC(C3)C1O)C2 (centres undefined)
[1]
  IC50: > 100 µM (not active)
[2]
  IC50: > 100 µM (inactive)

## COC(=O)c1ccc(Cl)c(NC(=O)CSc2nnc[nH]2)c1
Leucine aminopeptidase
  IC50: 35.1 µM (active)

## Cc1ccc(-c2nc(NC(=O)CSc3ccc4ccccc4n3)ns2)cc1
[1]
  IC50: > 100 µM (not active)
[2]
  IC50: > 100 µM (inactive)

## Cc1cccc(NC(=O)CSc2nnc(NC(=O)CN3CCOCC3)s2)c1
Leucine aminopeptidase
  IC50: 14 µM (active)

## Cc1ccc(Cl)cc1N1CCN(Cc2nnnn2Cc2ccco2)CC1
[3]
  EC50: 0.633 µM (active)

## O=c1c2ccccc2nc(CN2CCCCCC2)n1-c1ccc(F)cc1
[4]
  AC50: 10.1 µM (active)
[5]
  AC50: 20.9 µM (active)
[6]
  AC50: 30.2 µM (active)
[7]
  AC50: 50.6 µM (active)

## CCSc1nc2ccccc2n1C(=O)/C=C\c1ccc(OC)c(OC)c1
[8]
  IC50: > 80 µM (inactive)
[9]
  EC50: 4.6 µM (inconclusive)
BJ [10]
  EC50: 8.04 µM (active)
BJ [11]
  EC50: 5.15 µM (inconclusive)
[12]
  EC50: 0.24 µM (active)
BJ [13]
  EC50: 4.41 µM (inconclusive)

## O=C(Nc1ccc2c(c1)OCO2)C1CCN(Cc2cnn(-c3ccccc3)c2-n2cccc2)CC1
[3]
  EC50: 5.88 µM (active)

## COc1cc(/C=N/Nc2cc(C)nc(NS(=O)(=O)c3ccc(C)cc3)n2)ccc1O
[1]
  IC50: > 100 µM (not active)
[2]
  IC50: > 100 µM (inactive)

## CCC1(C(=O)OC)CCc2c(cc(OC)c3ccccc23)C1=O (centres undefined)
[14]
  IC50: > 54 µM (not active)

## Cc1cccc(Nc2nnc(SCC3CCCCO3)s2)c1C (centres undefined)
[12]
  EC50: 12.4 µM (not active)

## COc1ccccc1-c1cccc(-c2nc(C(=O)Nc3nccs3)cc3c2[C@H](CCO)N(C(C)=O)C3)c1
[15]
  AC50: 1.96 µM (active)
[16]
  AC50: 2.15 µM (active)
[17]
  AC50: 2.08 µM (active)
[18]
  AC50: 3.93 µM (active)
[19]
  AC50: 66.8 µM (active)

## O=C(Nc1ccc(C(F)(F)F)cc1)N1[C@@H]2CNC[C@H]1[C@H]2c1ccc(/C=C/c2ccccc2)cc1
[15]
  AC50: 1.52 µM (active)
[16]
  AC50: 2.46 µM (active)
[17]
  AC50: 1.4 µM (active)
[18]
  AC50: 1.76 µM (active)
[19]
  AC50: 66.2 µM (active)

## CC1CCN(S(=O)(=O)c2ccc(NN=C(C#N)C#N)cc2)CC1
[3]
  EC50: 1.52 µM (active)

## CCOc1c(C)cnc2c1c(=O)n(Cc1ccc(Cl)cc1)c(=O)n2C
[4]
  AC50: 12.5 µM (active)
[5]
  AC50: 7.77 µM (active)
[6]
  AC50: 12.1 µM (active)
[7]
  AC50: 8.07 µM (active)

## CCCCCn1c(=O)c(C(=O)NCc2ccncc2)c(O)c2ccccc21
[20]
  EC50: > 38 µM (not active)
[21]
  EC50: > 150 µM (inactive)
[22]
  CC50: 14.7 µM (active)

## Cc1oc(-c2ccccc2)nc1Cn1cccc1C1=NC(c2ccccc2)CO1 (centres undefined)
[3]
  EC50: 7.51 µM (active)

## O=c1/c(=C/c2ccc(O)c([N+](=O)[O-])c2)sc2nc3ccccc3n12
[23]
  IC50: 1.83 µM (active)
[14]
  IC50: 3.94 µM (active)

## COc1ccc(C2=NS(=O)(=O)N(C)C(C(=O)Nc3ccc4c(c3)OCO4)=C2)cc1OC
Nonstructural protein 1
  IC50: > 100 µM (active)

## CCOC(=O)c1c(NC(C)=O)sc2c(O)c(Br)cc(Br)c12
[14]
  IC50: 4.76 µM (active)
Large T antigen
  IC50: 56.7 µM (active)

## COc1ccc(NC(=O)C(=O)NCC2CCCN2S(=O)(=O)c2cccs2)cc1 (centres undefined)
[4]
  AC50: > 70 µM (inactive)
[8]
  IC50: > 80 µM (inactive)

## Cc1cc(C)nc(N/N=C/c2c(CO)cnc(C)c2O)n1
Nonstructural protein 1
  IC50: 20.2 µM (active)

## O=C(c1cccc(F)c1)N1CC(=O)N2[C@H](CO)[C@H](c3ccc(-c4cccnc4)cc3)[C@H]2C1
[15]
  AC50: 0.186 µM (active)
[16]
  AC50: 0.326 µM (active)
[17]
  AC50: 0.133 µM (active)
[18]
  AC50: 0.198 µM (active)
[19]
  AC50: > 100 µM (inactive)

## CCn1c(=O)cc(OCC(=O)NCCC(C)C)c2ccccc21
[1]
  IC50: > 100 µM (not active)
[2]
  IC50: > 100 µM (inactive)

## C/C(=N\NC(=O)c1ccccc1O)c1ccc(Br)s1
[22]
  CC50: 24.4 µM (active)

## Cc1cc(C)nc(NCc2ccc(O)c(O)c2)n1
[24]
  IC50: 27 µM (active)

## Cc1ccccc1NC(=O)CSc1nc(O)cc(C)c1C#N
Leucine aminopeptidase
  IC50: 10.9 µM (active)
